# Experimental data reported in patent US9598459B2, “Pharmaceutical compositions and methods” (priority 2015, dated 2017).
# Where “and” joins values, the source holds several entries; their conditions need not be identical. Equal values may be shown once. Where a name gives a salt, the structure may show the parent alone. Read-outs that look alike come from different tables or passages of the source.
# Legend:
# in vitro [1] = settings: human, CC50
# Zika virus MR766 = assay: Zika virus antiviral screen in HuH-7; format: cell-based; settings: for EC50: Zika virus, read-out: EC50
# Dengue 2 = assay: Dengue virus antiviral screen in HUH7; format: cell-based, dengue virus type 2; settings: Dengue virus, Huh-7, New Guinea C, read-out: EC50
# in vitro [2] = settings: African green monkey
# Tacaribe TRVL11573 = assay: microbe, parasite or virus in culture; format: cell-based, Tacaribe virus
# [3] = system: swine-origin pandemic influenza A (H1N1) virus; assay: microbe, parasite or virus in culture; format: cell-based
# [4] = system: Respiratory syncytial type A A2 (VR-1540); assay: Respiratory syncytial virus type A antiviral screen in MA-104; format: cell-based; settings: human respiratory syncytial virus, MA104, A2 (VR-1540), read-out: EC50
# Rift Valley fever MP-12 = assay: microbe, parasite or virus in culture; format: cell-based, Rift Valley fever virus
# in vitro [5] = settings: African green monkey; remark: listed apart in the source
# [6] = Cytotoxicity on primary human foreskin fibroblasts; settings: human
# [7] = system: Vaccinia virus Copenhagen; assay: microbe, parasite or virus in culture; format: cell-based; settings: Orthopoxvirus vaccinia, HFF-1
# [8] = system: Enterovirus 71 Tainan/4643/98; assay: microbe, parasite or virus in culture; format: cell-based; settings: Enterovirus A, Vero 76
# Vero 76 = settings: African green monkey
# Poliovirus type 3 WM-3 = assay: microbe, parasite or virus in culture; format: cell-based; settings: Enterovirus C, Vero 76
# [9] = system: Enterovirus D68 US/KY/14-18953; assay: Enterovirus D68 antiviral screen in RD; format: cell-based; settings: Enterovirus D, US/KY/14-18953, RD, read-out: EC50
# [10] = Cytotoxicity on RD host cells; format: cell-based; settings: human, RD cells, Enterovirus D68 screen, read-out: CC50
# [11] = Phosphatidylcholine binding (thin-layer chromatographic run); settings: words
# Vero = settings: African green monkey
# CCRF-CEM = assay: Cytotoxicity on CCRF-CEM; settings: read-out: Cytotoxicity CC50, CCRF-CEM
# HIV-1 strain LAI = assay: HIV-1 replication reverse transcriptase (RT) assay in PBMC; format: cell-based, human immunodeficiency virus type 1; settings: for EC90: Human immunodeficiency virus 1, read-out: Anti-HIV-1LAI activity EC90
# PBMC = settings: human
# in vitro [12] = settings: human
# Cytotoxicity on CCRF-CEM = settings: human, CCRF-CEM cells (T-lymphoblastic acute T cell leukemia), Cytotoxicity CC50, CCRF-CEM
# [13] = system: Herpes simplex virus type 1 E-377; assay: Herpes simplex virus type 1 antiviral screen in primary HFF-1 (CellTiter-Glo); format: cell-based; settings: Human alphaherpesvirus 1; E-377, Primary HFF-1, CellTiter-Glo
# [14] = target: cytosolic progesterone receptors (PR) (Homo sapiens, UniProt P06401); settings: Peeters et al., 2008; cited from earlier work
# cytosolic progesterone receptors (PR), sequence (P06401 whole entry): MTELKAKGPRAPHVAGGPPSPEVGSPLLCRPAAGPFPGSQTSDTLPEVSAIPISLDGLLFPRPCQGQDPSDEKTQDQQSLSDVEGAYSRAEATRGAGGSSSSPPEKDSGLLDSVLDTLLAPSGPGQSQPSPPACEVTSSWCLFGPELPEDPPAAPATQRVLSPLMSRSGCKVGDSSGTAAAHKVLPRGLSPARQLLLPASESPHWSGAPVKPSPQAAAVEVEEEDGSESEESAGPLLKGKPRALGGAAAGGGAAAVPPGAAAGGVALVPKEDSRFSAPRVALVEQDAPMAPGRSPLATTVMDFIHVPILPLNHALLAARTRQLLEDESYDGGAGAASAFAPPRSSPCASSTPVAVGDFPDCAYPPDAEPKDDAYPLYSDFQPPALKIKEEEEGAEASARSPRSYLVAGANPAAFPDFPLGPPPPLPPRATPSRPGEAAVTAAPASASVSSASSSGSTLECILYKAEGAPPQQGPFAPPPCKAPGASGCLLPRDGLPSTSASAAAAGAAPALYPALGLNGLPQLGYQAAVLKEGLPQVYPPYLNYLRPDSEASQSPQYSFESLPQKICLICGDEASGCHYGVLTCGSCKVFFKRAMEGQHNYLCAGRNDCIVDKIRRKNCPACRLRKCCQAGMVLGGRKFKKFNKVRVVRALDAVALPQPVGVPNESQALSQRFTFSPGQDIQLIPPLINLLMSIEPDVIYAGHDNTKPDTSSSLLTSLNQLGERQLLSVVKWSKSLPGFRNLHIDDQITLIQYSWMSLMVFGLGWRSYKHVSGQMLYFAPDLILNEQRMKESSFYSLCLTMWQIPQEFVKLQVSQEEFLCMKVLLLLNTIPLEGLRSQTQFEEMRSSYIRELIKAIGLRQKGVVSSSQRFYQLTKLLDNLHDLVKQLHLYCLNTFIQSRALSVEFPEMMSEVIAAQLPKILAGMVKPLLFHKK
# [15] = rats, twice daily 1-2 mg kg−1 po; cited from earlier work
# cytosolic GRs = target: T1, cytosolic GRs (Homo sapiens, UniProt P04150); settings: Peeters et al., 2008; cited from earlier work
# T1 sequence (P04150 1-777): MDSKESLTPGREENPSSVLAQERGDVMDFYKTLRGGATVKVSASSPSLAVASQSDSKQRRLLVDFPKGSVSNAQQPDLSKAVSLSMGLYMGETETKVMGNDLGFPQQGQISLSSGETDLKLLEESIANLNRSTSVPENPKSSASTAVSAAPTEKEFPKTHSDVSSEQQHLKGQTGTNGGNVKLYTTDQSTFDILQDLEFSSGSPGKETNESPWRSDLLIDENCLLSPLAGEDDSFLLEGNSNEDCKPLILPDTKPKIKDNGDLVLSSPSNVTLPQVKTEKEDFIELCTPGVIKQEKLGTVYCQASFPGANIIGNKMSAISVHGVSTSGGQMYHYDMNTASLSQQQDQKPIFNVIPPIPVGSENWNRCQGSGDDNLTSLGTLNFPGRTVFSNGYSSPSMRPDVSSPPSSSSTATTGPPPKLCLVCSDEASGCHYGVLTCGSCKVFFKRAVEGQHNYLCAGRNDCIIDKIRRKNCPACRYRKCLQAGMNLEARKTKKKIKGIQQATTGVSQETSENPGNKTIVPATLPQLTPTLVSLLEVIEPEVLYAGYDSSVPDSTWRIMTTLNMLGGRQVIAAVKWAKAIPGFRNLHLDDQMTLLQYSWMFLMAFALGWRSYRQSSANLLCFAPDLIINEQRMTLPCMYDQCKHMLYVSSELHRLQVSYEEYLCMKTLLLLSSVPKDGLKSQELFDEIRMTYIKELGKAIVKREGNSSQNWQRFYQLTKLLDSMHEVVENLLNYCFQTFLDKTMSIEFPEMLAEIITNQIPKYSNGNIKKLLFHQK
# [16] = cited from earlier work
# [17] = system: Norwalk virus (replicon) GT1; assay: Norwalk virus replicon (GT1) in HG23, RNA hybridization; format: cell-based, Norwalk virus (human norovirus)
# RAW267.4 = assay: Toxicity in RAW267.4 cells (neutral red); settings: Neutral Red (Toxicity), Example 11
# MNV MNV-1 = assay: Murine norovirus (MNV-1) antiviral screen in RAW267.4; format: cell-based; settings: Neutral Red (Cytopathology), MNV-1, RAW267.4, Example 11
# [18] = system: Hepatitis B virus (HBV) ayw; assay: Hepatitis B virus replication in HepAD38 (32P dot blot); format: cell-based; settings: Hepatitis B virus
# [19] = system: Hepatitis C virus (replicon) clone B (genotype 1a); assay: HCV genotype 1a HuH-7 clone B subgenomic replicon RNA replication; format: cell-based, human hepatitis C virus; settings: Fixed: 10 μM, Clone B genotype 1a, HuH-7, Replicon
# [20] = system: cellular ribosomal RNA (rRNA) synthesis; assay: Cellular ribosomal RNA synthesis in HCV replicon cells (TaqMan RT-qPCR); format: cell-based; settings: Fixed: 10 μM, Clone B genotype 1a, HuH-7, Replicon
smiles,measurement,setting,value
"O=c1cnn([C@@H]2O[C@H](CO)[C@@H](O)[C@H]2O)c(=O)[nH]1 [6-azauridine, reference compound]",CC50,in vitro [1],> 408 µM
same,EC90,"Zika virus MR766; Huh-7, Visual (Virus yield reduction), Zika virus MR766, HUH7, Example 9, unit from Conc. Range, read-out: EC90",0.89 mg/L
same,EC50,"Zika virus MR766; Huh-7, MR766, HuH-7, Neutral red",11 mg/L
same,EC50,"Zika virus MR766; Huh-7, MR766, HuH-7, Visual",3.2 mg/L
same,EC50,"Zika virus MR766; Huh-7, Neutral Red (Cytopathic effect/Toxicity), Zika virus MR766, HUH7, Example 9",4.1 mg/L
same,EC50,"Zika virus MR766; Huh-7, Zika virus MR766, HuH-7, Table 10",13.1 µM
same,EC50,"Dengue 2; HuH-7, Neutral red",4.6 mg/L
same,EC50,"Dengue 2; HuH-7, Visual",2.8 mg/L
NC(=O)c1ncn([C@@H]2O[C@H](CO)[C@@H](O)[C@H]2O)n1 [Ribavirin],CC50,in vitro [2],> 1000 mg/L
same,EC50,Tacaribe TRVL11573,7 mg/L
same,EC50,"Tacaribe TRVL11573; Mammarenavirus tacaribeense, Vero",7.9 mg/L
same,EC50,[3],13 mg/L
same,EC50,"[3]; Influenza A virus, H1N1, MDCK",14 mg/L
same,EC50,"[4]; MA-104, Neutral red",6.8 mg/L
same,EC50,"[4]; MA-104, Visual",6.7 mg/L
same,EC50,Rift Valley fever MP-12,8.3 mg/L
same,EC50,"Rift Valley fever MP-12; Rift Valley fever virus, Vero 76",9.7 mg/L
same,CC50,in vitro [5]; CC50,> 1000 mg/L
Nc1ccn(C[C@@H](CO)OCP(=O)(O)O)c(=O)n1 [Cidofovir],CC50,"[6]; primary HFF-1 human foreskin fibroblasts, CC50",> 150 µM
same,EC50,[7],7.34 µM
"CCOC(=O)c1ccc(OCCC2CCN(c3ccc(C)nn3)CC2)cc1 [pirodavir, reference compound]",CC50,in vitro [2],> 27 µM and > 10 µg/mL
same,EC50,[8],0.097 µM
same,EC90,[8],0.23 mg/L
same,CC50,Vero 76,7.8 mg/L
same,EC50,Poliovirus type 3 WM-3,0.97 µM
same,EC90,Poliovirus type 3 WM-3,0.14 mg/L
CC(C)S(=O)(=O)n1c(N)nc2ccc(/C(=N/O)c3ccccc3)cc21 [Enviroxime],EC50,[9]; Neutral red,0.1 mg/L
same,EC50,[9]; Visual,< 0.1 mg/L
same,CC50,[10]; Neutral red,25 mg/L
same,CC50,[10]; Visual,32 mg/L
CC#C[C@]1(O)CC[C@H]2[C@@H]3CCC4=C/C(=N/NC(N)=S)CCC4=C3[C@@H](c3ccc4c(c3)OCO4)C[C@@]21C [(E)-ORG34517 thiosemicarbazone],binding to PC,[11],Weak (stereospecific!) binding to PC
"Cc1cn([C@H]2C[C@H](N=[N+]=[N-])[C@@H](CO)O2)c(=O)[nH]c1=O [AZT, 3′-azido-3′-deoxythymidine, reference compound]",CC50,Vero,39.5 µM
same,CC50,CCRF-CEM,14.3 µM
same,CC50,CCRF-CEM; listed as zidovudine (AZT),56.1 µM
same,EC50,"HIV-1 strain LAI; Human immunodeficiency virus 1, PBMC, LAI, PBMC, RT 3H-dTTP, read-out: EC50",0.00079 µM
same,EC90,HIV-1 strain LAI; in PBMC,0.0299 µM
same,EC50,"HIV-1 strain LAI; in PBMC, listed as zidovudine (AZT), read-out: Anti-HIV-1LAI activity EC50",0.0044 ± 0.0039 µM
same,CC50,PBMC,> 100 µM
same,CC50,in vitro [5]; Cytotoxicity CC50,56 µM
same,CC50,in vitro [12],> 100 µM
"Nc1ccn([C@@H]2O[C@H](CO)[C@@H](O)[C@H]2O)c(=O)[n+]1[C-2][n+]1c(N)ccn([C@@H]2O[C@H](CO)[C@@H](O)[C@H]2O)c1=O [TCY-1, Bis(cytidin-3-ium-3-yl)methanediide monohydrochloride×1.25H2O]",CC50,Cytotoxicity on CCRF-CEM,> 100 µM
same,EC50,"HIV-1 strain LAI; Human immunodeficiency virus 1, PBMC, in PBMC, read-out: Anti-HIV-1LAI activity EC50",0.29 µM
same,EC90,HIV-1 strain LAI; in PBMC,1 µM
same,CC50,in vitro [5]; Cytotoxicity CC50,> 100 µM
same,CC50,in vitro [12],> 100 µM
Nc1nc2c(ncn2COCCO)c(=O)[nH]1 [Aciclovir],CC50,"[6]; primary human foreskin fibroblasts (HFF-1), CC50, Herpes simplex virus type 1 screen, Primary HFF-1, CellTiter-Glo",> 150 µM
same,EC50,[13],3.85 µM
"CC#C[C@]1(O)CC[C@H]2[C@@H]3CCC4=CC(=O)CCC4=C3[C@@H](c3ccc(N(C)C)cc3)C[C@@]21C [mifepristone, reference compound]",value for the cytosolic progesterone receptors (PR),[14],36%
same,embryos lost,[15],~100%
same,"bound to cytosolic GRs, value",cytosolic GRs,193%
same,responding,[16]; glucose intolerant group,60%
same,responding,[16]; hypertensive group,43%
"CC#CC1(O)CCC2C3CCC4=CC(=NNC(=S)Nc5ccccc5)CCC4=C3C(c3ccc4c(c3)OCO4)CC21C.CC#CC1(O)CCC2C3CCC4=CC(=O)CCC4=C3C(c3ccc4c(c3)OCO4)CC21C (mixture of isomers) [PT156, 1/17(11β,17β)-17-Hydroxy-11-[3,4-(methylenedioxy)phenyl]-17-(1-propyn-1-yl)estra-4,9-dien-3-one (ORG34517)×(2EZ)-2-{(11β,17β)-17-hydroxy-11-[3,4-(methylenedioxy)phenyl]-17-(1-propyn-1-yl)estra-4,9-dien-3-ylidene}-N-phenylhydrazinecarbothioamide [74.1% (E), 25.9% (Z)] 11/17hydrate]",EC90,"[17]; RNA Hybridization (Replicon), NV GT1, HG23, Example 10",> 100 µM
same,EC50,"[17]; RNA Hybridization (Replicon), NV GT1, HG23, Example 10, unit from Conc. Range",> 100 µM
same,CC50,RAW267.4,33 µM
same,CC50,HG23,> 100 µM
same,EC90,MNV MNV-1,0.29 µM
same,EC50,MNV MNV-1; unit from Conc. Range,0.091 µM
Nc1ccn([C@@H]2CS[C@H](CO)O2)c(=O)n1 [Lamivudine],EC50,[18],0.03 µM
C[C@@]1(O)[C@H](O)[C@@H](CO)O[C@H]1n1ccc(N)nc1=O [RS-446],EC50,"[17]; Norovirus/1968/US, HG23, Replicon",6.9 µM
same,% Inhib replication,[19],98.08%
same,% Inhib rRNA(tox),[20],31.09%
